{"source": "patent US4505916A", "about": "“Method for the treatment of psychoneurotic states by administration of derivatives of 2-(4-piperidyl)-1-(4-quinolyl)-ethanone” (Pharmindustrie, priority 1979, dated 1985)"}
{"target": "cerebral receiving sites of the benzodiazepines", "test": "Displacement of tritiated Diazepam from its binding site (method of MOHLER et al.)", "set-up": "species or system rat", "settings": "displacement of tritiated Diazepam (3H Diazepam) from its binding site", "procedure": "The medicaments of the class of benzodiazepines are used as anticonvulsivants, as hypnotics and for the treatment of states of anxiety and of various psychoneurotic states for treatment of warm blooded mammals. The presence of specific receptors of the benzodiazepines in the membranes of the rat's brain has been shown [SQUIRES et al., Nature, 266, (1977), 732] and the degree of affinity of the benzodiazepines for these receptors, which is measured by their aptitude for displacing the tritiated Diazepam from its binding sites, is in good correlation with the pharmacodynamic effects observed on the animal and on man.\nI--AFFINITY FOR THE CEREBRAL RECEIVING SITES OF THE BENZODIAZEPINES\nThe products have been tested according to the method of MOHLER et al, Life Science, 1977, 20, 2101, which is relied on herein.", "units": {"Ki": "µM"}}
{"compound": "O=C(CC1CCNCC1)c1cc(-c2ccc(F)cc2)nc2ccccc12", "note": "[Example 6, 1-[2-(4-fluoro-phenyl)-4-quinolyl]-2-(4-piperidyl)-ethanone]", "Ki": 8}
{"compound": "C=C[C@H]1CNCC[C@H]1CCc1ccnc2ccc(OC)cc12", "note": "[Example 14, 6-METHOXY-4-{2-[3(R)-ETHENYL-4(R)-PIPERIDYL]-ETHYL}-QUINOLINE]", "Ki": 5}
{"compound": "Cc1ccc(-c2cc(C(=O)CC3CCNCC3)c3ccccc3n2)cc1", "note": "[Example 8, 1-[2-(4-METHYL-PHENYL)-4-QUINOLYL]-2-(4-PIPERIDYL)-ETHANONE]", "Ki": 1.6}
{"compound": "Cc1ccc(-c2cc(CCC3CCNCC3)c3ccccc3n2)cc1", "note": "[Example 19, 2-(4-METHYL-PHENYL)-4-[2-(4-PIPERIDYL)-ETHYL]-QUINOLINE]", "Ki": 0.6}
{"compound": "c1ccc(-c2cc(CCC3CCNCC3)c3ccccc3n2)cc1", "note": "[Example 16, 2-phenyl-4-[2-(4-piperidyl)-ethyl]-quinoline]", "Ki": 0.2}
{"compound": "O=C(CC1CCNCC1)c1cc(-c2ccc(Cl)cc2)nc2ccccc12", "note": "[Example 7, 1-[2-(4-CHLORO-PHENYL)-4-QUINOLYL]-2-(4-PIPERIDYL)-ETHANONE]", "Ki": 4.5}
{"compound": "C=C[C@H]1CNCC[C@H]1CC(=O)c1cc(-c2ccccc2)nc2ccccc12", "note": "[Example 11, 2-[3(R)-ethenyl-4(S)-piperidyl]-1-(2-phenyl-4-quinolyl)ethanone]", "Ki": 2}
{"compound": "c1ccc(CCN2CCC(CCc3cc(-c4ccccc4)nc4ccccc34)CC2)cc1", "note": "[Example 22, 4-{2-[1-(2-phenyl-ethyl)-4-piperidyl]-ethyl}-2-phenyl-quinoline]", "Ki": 0.5}
{"compound": "c1ccc2c(CCC3CCNCC3)ccnc2c1", "note": "[Example 24, 4-[2-(4-piperidyl)-ethyl]-quinoline]", "Ki": 13}
{"compound": "COc1ccc2nc(-c3ccccc3)cc(CCC3CCNCC3)c2c1", "note": "[Example 25, 6-methoxy-2-phenyl-4-[2-(4-piperidyl)-ethyl]-quinoline]", "Ki": 11}
{"compound": "COc1ccc(-c2cc(C(=O)CC3CCNCC3)c3ccccc3n2)cc1", "note": "[Example 9, 1-[2-(4-methoxy-phenyl)-4-quinolyl]-2-(4-piperidyl)ethanone]", "Ki": 5}
{"compound": "COc1ccc2nccc(CCC3CCNCC3)c2c1", "note": "[Example 13, 6-METHOXY-4-[2-(4-PIPERIDYL)-ETHYL]-QUINOLINE]", "Ki": 7}
{"compound": "C=C[C@H]1CNCC[C@H]1CC(=O)c1ccnc2ccc(OC)cc12", "note": "[Example 3, 2-[3(R)-ethenyl-4(S)-piperidyl]-1-(6-methoxy-4-quinolyl)-ethanone]", "Ki": 16}
{"compound": "CN1CCC(CCc2cc(-c3ccccc3)nc3ccccc23)CC1", "note": "[Example 23, 4-[2-(1-METHYL-4-PIPERIDYL)-ETHYL]-2-PHENYL-QUINOLINE]", "Ki": 0.1}
{"compound": "O=C(CC1CCNCC1)c1cc(-c2ccccc2)nc2ccccc12", "note": "[Example 5, 1-(2-phenyl-4-quinolyl)-2-(4-piperidyl)-ethanone]", "Ki": 0.5}
{"compound": "COc1ccc(-c2cc(CCC3CCNCC3)c3ccccc3n2)cc1", "note": "[Example 18, 2-(4-METHOXY-PHENYL)-4-[2-(4-PIPERIDYL)-ETHYL]-QUINOLINE]", "Ki": 1.3}
{"compound": "Clc1ccc(-c2cc(CCC3CCNCC3)c3ccccc3n2)cc1", "note": "[Example 17, 2-(4-chloro-phenyl)-4-[2-(4-piperidyl)-ethyl]-quinoline]", "Ki": 0.4}
{"tested_on": "ventricular arhythmia caused by aconitine", "test": "Aconitine test on the rat (antiarhythmic activity)", "format": "in vivo", "settings": "iv", "procedure": "The antiarhythmic activity of the compounds of the present invention has been shown with the help of the aconitine test on the rat.\nThe principle of the technique rests on the induction time of the ventricular arhythmia caused by aconitine which slowly perfused in rats. An antiarhythmic substance retards the appearance of the arhythmia and the delay is proportional to the activity of the molecule.\nGroups of 5 male rats are used. An individual anaesthesia is carried out (10% urethane: 1 g/kg/ip) to permit a catheterisation of the vein of the penis. The electrocardiogram is recorded. At the time T=0 the substance studied is injected in the form of an aqueous solution, at the rate of 2.5 ml of solution per kg in 30 seconds. At the time T=90 seconds, that is 1 minute after the end of the injection, the aconitine is perfused at the rate of 20 μg per minute until the appearance of supraventricular extra systoles. The time of perfusion of the aconitine is noted.\nThe results are expressed by an ED50 which is the dose in mg/kg increasing by 50% the time of perfusion of the aconitine in comparison with the perfusion time of aconitine for the control animals.", "units": {"ED50": "mg/kg"}}
{"compound": "C=C[C@H]1CNCC[C@H]1CCc1ccnc2ccc(OC)cc12", "note": "[Example 14, 6-METHOXY-4-{2-[3(R)-ETHENYL-4(R)-PIPERIDYL]-ETHYL}-QUINOLINE]", "ED50": 5}
{"compound": "C=C[C@@H]1CNCC[C@H]1CCc1ccnc2ccc(OC)cc12", "note": "[Example 26, 6-methoxy-4-{2-[3(S)-ethenyl-4(R)-piperidyl]-ethyl}-quinoline]", "ED50": 2.6}
{"compound": "c1ccc(-c2cc(CCC3CCNCC3)c3ccccc3n2)cc1", "note": "[Example 16, 2-phenyl-4-[2-(4-piperidyl)-ethyl]-quinoline]", "ED50": 1.3}
{"target": "cerebral receiving sites of the benzodiazepines", "test": "not given", "settings": "3H Diazepam; constant used in the formula for Ki; read-out: KD, constant of affinity; cited from earlier work", "units": {"Kd": "µM"}}
{"compound": "CN1C(=O)CN=C(c2ccccc2)c2cc(Cl)ccc21", "note": "[^3 H Diazepam]", "Kd": 0.00274}
